For data set [1], the system named is HemSCs. Particulars: cited from earlier work.
The next data set concerns HemSC. The experiment in a line: Calcium influx assay by fluorescence microscopy. In kind it is cell-based, human.
The subject of data set [2] is HemSCs. Put plainly: Viability / cell morphology by phalloidin staining. Format: cell-based, human.
Data set [3] concerns HemSCs. The experiment in a line: SMC/pericyte marker expression in HemSCs (qPCR, Western blot). Format: cell-based, human.
In data set [4] the test system is HemSCs. Put plainly: Two cell model of IH with HemSCs pre-treated in vitro. Format: in vivo, nude mice. The source says:
To test whether or not HemSCs are a target of Rapamycin, versus the cbEPCs or a murine host cell, HemSCs were pre-treated with Rapamycin for three days in vitro, the drug was washing out, and the Rapamycin-treated or control HemSCs were resuspended with cbEPCs in Matrigel, and injected into mice.
(§1) To do this, the anti-proliferative drug Roscovitine, a purine analogue andcyclin-dependent kinase inhibitor (De Azevedo et al., 1997) (Meijer et al., 1997) was used. First, the effect of Roscovitine on HemSCs proliferation was titrated in vitro. […] Next, HemSCs were pre-treated in vitro for three days with either Roscovitine or Rapamycin, the drugs washed out, and the cells then injected with untreated cbEPC into mice.
(§2) Nude/Nude mice were purchased from Massachusetts General Hospital animal facility. Procedures were approved by the Animal Care and Use Committees of the Children's Hospital, Boston. Anesthesia was induced with 4% isofluorane and maintenance in 1-3% oxygen. Mice were anesthetized once for up to 5 min. The one cell and two cell models of IH were performed as reported (Greenberger et al., 2010; Khan et al., 2008) and microvessel density (MVD) was assessed by counting red blood cell-filled lumens (Melero-Martin et al., 2007). Values reported for each experimental condition correspond to the average MVD value±standard error of the mean (SEM) obtained from all the individual animals.

For data set [5], the system named is human ECs, including HemECs. Put plainly: PLGF-1 expression in endothelial cells (ELISA, RT-PCR). Format: cell-based. The note with it: 48 hours of incubation.
Experimental: FIG. 11C depicts a graph of quantitative ELISA analysis of PLGF-1 protein secreted from HemECs and Human Dermal Microvascular Endothelial Cells (HDMECs) following 48 hours of incubation with Rapamycin. FIG. 11D depicts a graph of the dose-response of Rapamycin on PLGF-1 mRNA expression in HemECs. Quantitative RT-PCR analyses of HemECs PLGF-1 expression following 48 hours of incubation with Rapamycin at the indicated concentration. FIG. 11E depicts a graph of the dose-response of Rapamycin on PLGF-1 protein secretion from HemECs. PLGF-1 was measured by quantitative ELISA analysis following 48 hours of incubation with Rapamycin at the indicated concentration.
(§6) An enzyme-linked immunoassay (ELISA) was performed using Quantikine Human VEGF and PLGF (R&D Systems). […]
Data set [6] concerns HemSCs. The experiment in a line: Adipogenic differentiation of HemSCs. The note with it: adipogenic differentiation protocol. Format: cell-based, human.
Experimental: (§7) Whether the multi-lineage differentiation of HemSCs could be altered by Rapamycin was assayed.
(§8) Differentiation assays towards endothelial cells and adipocytes were done as reported (Khan et al., 2008).
Data set [7] concerns HemSCs. The experiment in a line: Endothelial differentiation of HemSCs. In kind it is cell-based, human. The note with it: in vitro.
Experimental: as §7, §8
For the next data set, the system named is HemSCs in Matrigel. Put plainly: One cell model of IH (HemSC implanted alone). Format: in vivo, nude mice. The note with it: i.p. on days 1-6, explanted day 7. The procedure:
(§3) Next, the effect of systemic Rapamycin was tested in a two cell model of IH described previously (Greenberger et al., 2010). HemSCs and cbEPCs were mixed with Matrigel and injected subcutaneously in nude mice. This two-cell model has advantages over injecting HemSC alone: first it is more robust and thus more sensitive for detecting dose-response activity. Second, it allows one to test separately the effect of rapamycin on the HemSC versus cbEPCs, which are primary ECs isolated from cord blood that serve as prototypic young ECs. Rapamycin was administered daily by intra-peritoneal injection.
as §2

For data set [8], the system named is HemSCs. Put plainly: HemSC proliferation dose-response. Format: cell-based, human. The procedure: (§4) FIG. 1A depicts dose-response curves of HemSCs (squares), NHDF (triangles), and BM-MSCs (circles) treated with Rapamycin. Error bars denote standard deviation (SD) (n=32). FIG. 1B depicts a graph of the quantification of PCNA-positive cells in HemSCs treated with Rapamycin. Error bars denote SD (n=8). *P<0.05 compared with the non-treated group. FIG. 1C depicts the results of a Western blot for phospho4EBP-1(565) and total 4EBP-1 in HemSCs serum-starved for 24 hours, pretreated with vehicle alone (“0”) or rapamycin for 20 minutes and then stimulated with media containing serum and growth factors for 30 minutes. FIG. 1D depicts a graph of the bands in FIG. 1C quantified using ImageJ; normalized to β-actin.
(§5) Proliferating cell nuclear antigen (PCNA) served as an additional measure of proliferation (Prelich et al., 1987) (Hall and Levison, 1990).
as §1

Data set [9] deals with HemSCs. Put plainly: Clonogenic assay (self-renewal). Format: cell-based, human. Particulars: pre-treatment 20 ng/ml 4 days, colonies at 9 days. As to the method: To test self-renewal capacity of HemSCs, a clonogenic assay was performed (Ingram et al., 2004).
HemSCs were incubated with Rapamycin 20 ng/ml or DMSO, as a control, for 4 days. Following washout of the drug, cells were serially diluted to 8 cells per ml and plated in 384 well plates, 40 μl/well. Medium was replaced every 48 hours. At day 9, cells were fixed and stained with Hoechst. Following image capture by automated fluorescence microscopy, colony formation and the number of cells/colony were determined by quantifying the number of wells with Hoechst-stained nuclei and the number of Hoechst-stained nuclei/well using MetaXpress Software.

In the next data set the test system is BM-MSCs. The experiment in a line: BM-MSC proliferation dose-response. In kind it is cell-based, human. Particulars: FIG. 1A. The procedure: as §4, §5
The subject of data set [10] is HemSCs and cbEPCs in Matrigel. Put plainly: Regression of pre-existing vessels, contrast-enhanced micro-ultrasonic imaging of Matrigel implants. In kind it is in vivo, nude mice. Particulars: 2 mg/kg i.p.
Experimental: To test this, contrast-enhanced micro-ultrasonic imaging was used to measure blood flow in the Matrigel implants. […] For the experiment, mice were injected with cells and imaged at day 7 to record baseline blood flow in the implants. Mice were then randomized into two groups: Rapamycin, 2 mg/kg by i.p. injection or vehicle alone by i.p. injection. At day 17, follow-up imaging was performed.
Contrast-enhanced high resolution ultrasonic (US) imaging of the blood flow in Matrigel implants was performed using a Vevo 770 System with a 40-MHz RMV scanhead (Visual Sonics) (Loveless et al., 2009; Olive et al., 2009). MicroMarker non-targeting contrast agent (Visualsonics) was prepared according to manufacturer's guidelines. For imaging, mice were anesthetized with 2% isofluorane, coupling gel was applied to cover the entire region of interest, and 2-D B-mode scout images established the central slice of the Matrigel. The transducer was placed such that the 6 mm focal spot converged at the center of the Matrigel. Baseline images were acquired in Contrast Mode, and a 50 μL bolus of contrast agent suspension was administered via tail vein catheter during acquisition of a second contrast video.
Another data set relates to mTOR. The experiment in a line: Western blot of phosphorylated 4EBP1 in HemSCs. Format: cell-based, human. The note with it: HemSCs serum-starved 24 hours, pretreated 20 minutes. As to the method:
as §4
(A western blot detects proteins with antibodies after separation by electrophoresis.)

In data set [11] the test system is cbEPCs. The experiment in a line: Two cell model of IH with cbEPCs pre-treated in vitro. In kind it is in vivo, nude mice.
For data set [12], the system named is HemSCs. The experiment in a line: Pro-angiogenic cytokine expression (antibody array, ELISA, qPCR). Format: cell-based, human.
Experimental: To investigate whether corticosteroids and Rapamycin share common mechanisms for suppressing HemSCs-mediated vascularization, the effect of Rapamycin on expression of a panel of 43 pro-angiogenic proteins was evaluated.
Angiogenic Cytokine Antibody Array. Conditioned media from HemSCs and HemECs, treated or untreated with dexamethasone or Rapamycin, were analyzed for protein expression using RayBio® Human Angiogenesis Antibody Array C Series 1000 (RayBiotech); according to the manufacturer's instructions. Blots were analyzed by with image J software (NIH).
as §6
The subject of data set [13] is cbEPCs. Put plainly: Endothelial proliferation assay. Particulars: 20 ng/ml, 48 hours, not rescued by VEGF-A or PLGF-1. In kind it is cell-based, human.
Experimental: FIG. 11A depicts a graph of cell number of cbEPCs treated for 48 hours with Rapamycin or (20 ng/ml) DMSO as a control, in the presence of either VEGF-A (37.5 ng/ml), PLGF-1 (37.5 ng/ml) or the combination. Cell number was quantified by automatic microscopy and software analysis. Bars denote the standard deviation with n=32 for each treatment combination. FIG. 11B depicts a graph of cell number of cbEPCs treated for 48 hours with Everolimus (20 ng/ml), Temsirolimus (200 ng/ml) or DMSO as a control, in the presence of VEGF-A (37.5 ng/ml) or PLGF-1 (37.5 ng/ml). Cell number was quantified by automatic microscopy and software analysis. Bars denote the standard deviation with n=32 for each treatment combination.
To study this effect, Rapamycin was tested on cbEPCs.
cbEPCs at passages 6-10 were plated in 384-well plates at 1000 cells per well. 24 hours later, media was removed and replaced with EBM-2 5% fetal bovine serum media containing the recombinant human proteins VEGF-A at 37.5 ng/ml (R&D Systems) or PlGF-1 at 37.5 ng/ml (R&D Systems), and the drug compounds Rapamycin (20 ng/ml), Everolimus 20 ng/ml or Temsirolimus 200 ng/ml in replicates of 32. 48 hours later, cells were fixed and stained with Hoechst (Invitrogen). Following image capture by automated fluorescence microscopy, cell number was determined using MetaXpress Software.
Data set [14] concerns normal human dermal fibroblasts (NHDF). Put plainly: NHDF proliferation dose-response. In kind it is cell-based. Particulars: FIG. 1A. The procedure: as §4, §5
Data set [15] relates to HemSCs and cbEPCs in Matrigel. Put plainly: Two cell model of IH (HemSCs and cbEPCs in Matrigel), systemic drug. The note with it: daily intra-peritoneal injection; for vascularization of Matrigel implants / formation of blood vessels (MVD): compared with vehicle. In kind it is in vivo, nude mice. The procedure: as §3
To test this concept, mice were given i.p. injections of low dose of dexamethasone (0.25 mg/kg), low dose of Rapamycin (0.25 mg/kg) or the combination of both.
as §2
Rapamycin, Everolimus and Temsirolimus were purchased from LC Laboratories. Drugs were dissolved in DMSO followed by solvent solution (5% polyethylene glycol, 0.2% carboxymethylcellulose and 0.25% Tween-80 in H2O). Aliquots were kept in −20° C. Mice were given daily intra-peritoneal (i.p.) injections containing 200 μl of drug or the vehicle alone.

Data set [16] deals with HemSCs. Put plainly: PCNA immunostaining of HemSCs. In kind it is cell-based, human. The note with it: 10 ng/ml. The procedure:
as §5
Human-specific CD31 (DakoCytomation) immunostaining was performed as described (MeleroMartin et al., 2007), (Roelofs et al., 2003). PhosphoAKT/VE-cadherin double immunofluorescence was done on cryosections. Slides were fixed with 8% paraformaldehyde, blocked with 1% BSA and incubated with anti-VE-Cadherin (goat, Santa Cruz Biotechnology, Santa Cruz, Calif.) 1:100 for one hour, followed by anti-goat Texas-Red (Vector Labs, Burlingame, Calif.) 1:200. Following an additional blocking step (1% BSA, 0.1% Triton-X), AntipAKT (mouse, Cell Signaling, Danvers, Mass.) 1:100, was applied over night in 4° C. and next, anti-mouse Alexa Fluor 488 (Invitrogen) 1:300 for one hour. PCNA immunostaining was done using anti-PCNA 1:500 (mouse, Santa Cruz Biotechnology, Santa-Cruz, Calif.). For immunostaining of paraffing embedded Matrigel explants, antigen retrieval was done by citrate buffer. Sections were blocked by 5% horse serum and incubated with a secondary anti-mouse horseradish peroxidase (HRP) conjugate at 1:300 (Vector Labs, Burlingame, Calif.). For immunofluorescence, cells were fixed with methanol, blocked by 1% BSA.

The text below walks through data of patent US9737514B2, “Methods and compositions for the treatment of proliferative vascular disorders” (Children's Medical Center Corporation, priority 2011, dated 2017).

In the case of `C[C@@H]1C[C@H]2[C@@H]3CCC4=CC(=O)C=C[C@]4(C)[C@@]3(F)[C@@H](O)C[C@]2(C)[C@@]1(O)C(=O)CO` [Dexamethasone, dexamethasone], in the data set with HemSCs [1], the “VEGF-A, IL-6, MMP-1, MCP-1 and UPAR expression” value was “suppressed”.

In the case of `COC(=O)C1=C(C)NC(C)=C(C(=O)OC)C1c1ccccc1[N+](=O)[O-]` [Nifedipine, nifedipine], the “spontaneous Ca2+ oscillations” value in the data set with HemSC (10 uM, Rapamycin-treated HemSC) is listed as “cessation of oscillations”.

Take `CO[C@H]1C[C@@H]2CC[C@@H](C)[C@@](O)(O2)C(=O)C(=O)N2CCCC[C@H]2C(=O)O[C@H]([C@H](C)C[C@@H]2CC[C@@H](O)[C@H](OC)C2)CC(=O)[C@H](C)/C=C(\C)[C@@H](O)[C@@H](OC)C(=O)[C@H](C)C[C@H](C)/C=C/C=C/C=C/1C` [Rapamycin, rapamycin]: the “viability (normal cell morphology, phalloidin staining)” value in the data set on HemSCs [2] was “not affected”. Also, the “expression levels of calponin, NG2 and PDGF-Rβ” value in the data set on HemSCs [3] (FIG. 10A) was “unchanged”. For the same compound, in the data set on HemSCs [3] (incubation four days), the “SM22-alpha and αSMA at the protein level” value is on record as “increased”; the “smMHC and SM22-alpha transcript levels” value is “upregulation”. In the data set on HemSCs [4] (HemSCs pre-treated in vitro three days, washed out, injected with untreated cbEPC (Roscovitine comparison experiment)), the “inhibition of microvessel density” value worked out at 60%. The “inhibition of blood vessel formation” value with HemSCs [4] (HemSCs pre-treated three days in vitro, drug washed out, injected with cbEPCs) amounted to 80%. Further, the “endogenous PLGF-1” value in [5] is recorded as “dose-dependent suppression”. Besides, the “expression of adipogenic markers LPL, C/EBP-α and accumulation of lipid droplets” value in the data set with HemSCs [6] is “blocked expression”. Further, the “ability of HemSCs to differentiate towards an endothelial phenotype” value in the data set with HemSCs [7] is “No effect”. The “vessel formation, HemSC implanted alone” value in the data set on HemSCs in Matrigel is “inhibited vessel formation”. In the data set on HemSCs [8] (concentrations of 1 ng/ml and higher), the “inhibition of HemSCs proliferation” value is on record as about 40%. Moreover, in the data set on HemSCs [9], the “appearance of colonies with >500 cells” value was “abolished” and the “decrease in the number of HemSC colonies formed” value is 60%. Moreover, the “sensitivity of BM-MSCs proliferation compared with HemSCs” value with BM-MSCs was “less sensitive”. Moreover, the “vascularization of Matrigel implants macroscopically and by histological analysis” value in data set [10] is recorded as “less vascularized”. Also, in data set [10] (day 7 to day 17), the “blood flow in the implant (contrast intensity)” value was “reduced blood flow”. Moreover, the “functional features of SMCs (calcium influx)” value in the data set with HemSC (HemSC treated 20 ng/ml six days) is listed as “express L-type voltage gated channels”. For the same compound, the “constitutive and serum/growth factor stimulated levels of phosphorylated 4EBP1” value in the data set with mTOR is “dose-dependent decrease”. Also, the “blood vessel formation after pre-treatment of cbEPCs” value in the data set on cbEPCs [11] is “no effect”. In the data set on HemSCs [12], the “expression of VEGF-A by HemSCs at the mRNA or protein level” value is “did not block”. The “angiogenin and PLGF-1 expression” value in the data set on HemSCs [12] (in HemSCs and cbEPCs) is on record as “downregulated”. In the data set on cbEPCs [13], the “growth of cbEPCs” value was “suppressed growth”. Also, in data set [14], the “sensitivity of NHDF proliferation compared with HemSCs” value is given as “less sensitive”. For the same compound, in [15] (anti-human CD31 staining), the “de novo formation of human CD31-positive blood vessels” value is “inhibited the de novo formation”. The “vascularization of Matrigel implants / formation of blood vessels (MVD)” value in data set [15] is “dose-dependent inhibition”. For the same compound, the “suppression of percentage of PCNA-positive HemSCs” value with HemSCs [16] is on record as 80%.

For `CC[C@H](CO)Nc1nc(NCc2ccccc2)c2ncn(C(C)C)c2n1` [Roscovitine], the “inhibition of microvessel density (in words)” value in the data set on HemSCs [4] (HemSCs pre-treated in vitro three days, washed out, injected with untreated cbEPC) is listed as “did not”. In the data set on HemSCs [8] (Homo sapiens, read-out: inhibition of HemSCs proliferation), the inhibition at 3.125 µM is 55%.

For `CO[C@H]1C[C@@H]2CC[C@@H](C)[C@@](O)(O2)C(=O)C(=O)N2CCCC[C@H]2C(=O)O[C@H]([C@H](C)C[C@@H]2CC[C@@H](OCCO)[C@H](OC)C2)CC(=O)[C@H](C)/C=C(\C)[C@@H](O)[C@@H](OC)C(=O)[C@H](C)C[C@H](C)/C=C/C=C/C=C/1C` [everolimus], the “vascularization of Matrigel implants / formation of blood vessels (MVD)” value in data set [15] is given as “significantly inhibited”.

For the compound `CO[C@H]1C[C@@H]2CC[C@@H](C)[C@@](O)(O2)C(=O)C(=O)N2CCCC[C@H]2C(=O)O[C@H]([C@H](C)C[C@@H]2CC[C@@H](OC(=O)C(C)(CO)CO)[C@H](OC)C2)CC(=O)[C@H](C)/C=C(\C)[C@@H](O)[C@@H](OC)C(=O)[C@H](C)C[C@H](C)/C=C/C=C/C=C/1C` [temsirolimus], the “vascularization of Matrigel implants / formation of blood vessels (MVD)” value in data set [15] is recorded as “significantly inhibited”.
